# Test results published in patent publication US20250092022A1, “MUSCARINIC RECEPTOR 4 ANTAGONISTS AND METHODS OF USE” (Neurocrine Biosciences, Inc., priority 2021, published 2025).
# Molecular target: human M4 receptor (Homo sapiens (Human), UniProt P08173)
# Assay: Binding assay: inhibition of radioligand (tritiated N-methylscopolamine) binding to membranes from CHO cells expressing human M4 receptor
# Details: CHO cell membranes, 1.5 nM tritiated N-methylscopolamine
# Experimental: Binding affinity (Ki) for the compounds was measured by inhibition of radioligand binding to membranes from CHO cells expressing human M4 receptor. Membranes were prepared by nitrogen cavitation and differential centrifugation as previously described (Hoare et al., Mol. Pharmacol. 2003 March; 63(3): 751-65). The radioligand employed was tritiated N-methylscopolamine, used at a concentration of 1.5 nM. A dose-response of twelve concentrations of compound was used, ranging from […]. The assay buffer was 50 mM HEPES, 100 mM NaCl, 5 mM MgCl2, 1 mM ethylenediaminetetraacetic acid, pH-adjusted to pH 7.4. Membranes, radioligand and compound were incubated together for 90 minutes at 37° C., in a total volume of 150 μL in a 96-well plate. Receptor-bound radioligand was then collected by harvesting the assay over glass fiber filters pretreated with polyethylenimine to trap the cell membranes, using rapid vacuum filtration. Harvesting and radioactivity counting was conducted as previously described (see, e.g., Hoare et al., Mol. Pharmacol. 2003 63(3):751-65); Erratum at Mol. Pharmacol. 2005 July; 68(1): 260).
# Chain of human M4 receptor (P08173 whole entry): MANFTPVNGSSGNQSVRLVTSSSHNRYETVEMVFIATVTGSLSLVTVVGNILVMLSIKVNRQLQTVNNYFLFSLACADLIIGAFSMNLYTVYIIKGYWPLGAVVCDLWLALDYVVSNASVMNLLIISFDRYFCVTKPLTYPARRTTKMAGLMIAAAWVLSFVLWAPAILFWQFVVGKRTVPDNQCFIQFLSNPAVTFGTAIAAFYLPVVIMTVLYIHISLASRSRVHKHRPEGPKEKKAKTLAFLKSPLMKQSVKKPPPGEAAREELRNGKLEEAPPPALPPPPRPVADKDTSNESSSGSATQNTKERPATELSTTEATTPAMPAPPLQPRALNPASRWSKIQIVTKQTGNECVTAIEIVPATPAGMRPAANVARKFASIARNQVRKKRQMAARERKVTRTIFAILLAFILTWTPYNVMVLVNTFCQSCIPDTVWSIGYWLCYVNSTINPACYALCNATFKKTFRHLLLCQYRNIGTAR
row,Ki,Compound
1,≥ 0.5 µM,"C[C@@H]1CN(c2ncc(OC3CC3)cn2)C[C@H](C)N1C(=O)OC1CC2(C1)CN(Cc1ccccc1)C2 [Compound 46, 2-benzyl-2-azaspiro [3.3]heptan-6-yl (2R,6S)-4-(5-cyclopropoxy-pyrimidin-2-yl)-2,6-dimethylpiperazine-1-carboxylate]"
2,≥ 0.5 µM,"Cc1ccc(CN2CC3(CC(OC(=O)N4[C@H](C)CN(c5ncc(S(C)(=O)=O)cn5)C[C@@H]4C)C3)C2)cc1 [Compound 61, 2-[(4-methylphenyl)methyl]-2-azaspiro[3.3] heptan-6-yl (2R,6S)-4-(5-methanesulfonylpyrimidin-2-yl)-2,6-dimethyl-piperazine-1-carboxylate]"
3,≥ 0.5 µM,"C[C@H](O)COc1cnc(N2C[C@@H](C)N(C(=O)OC3CC4(C3)CN(Cc3ccccc3)C4)[C@@H](C)C2)nc1 [Compound 55, 2-benzyl-2-azaspiro [3.3]heptan-6-yl (2R,6S)-4-{5-[(2S)-2-hydroxypropoxy]pyrimidin-2-yl}-2,6-dimethylpiperazine-1-carboxylate]"
4,≥ 0.5 µM,"COc1cnc(N2C[C@@H](C)N(C(=O)OC3CC4(C3)CN(Cc3ccccc3)C4)[C@@H](C)C2)nc1 [Compound 45, 2-benzyl-2-azaspiro [3.3]heptan-2-yl (2R,6S)-4-(5-methoxypyrimidin-2-yl)-2,6-dimethyl-piperazine-1-carboxylate]"
5,≥ 0.5 µM,"COc1ccccc1CN1CC2(CC(OC(=O)N3[C@H](C)CN(c4ncc(S(C)(=O)=O)cn4)C[C@@H]3C)C2)C1 [Compound 62, 2-[(2-methoxyphenyl)methyl]-2-azaspiro[3.3] heptan-6-yl (2R,6S)-4-(5-methanesulfonylpyrimidin-2-yl)-2,6-dimethyl-piperazine-1-carboxylate]"
6,0.1 to 0.5 µM,"CC(C)S(=O)(=O)c1cnc(N2C[C@@H](C)N(C(=O)OC3CC4(C3)CN(Cc3ccccc3)C4)[C@@H](C)C2)nc1 [Compound 42, 2-benzyl-2-azaspiro [3.3]heptan-6-yl (2R,6S)-2,6-dimethyl-4-[5-(propane-2-sulfonyl)pyrimidin-2-yl]piperazine-1-carboxylate]"
7,0.1 to 0.5 µM,"C[C@@H]1CN(c2ncc(OCC(C)(C)O)cn2)C[C@H](C)N1C(=O)OC1CC2(C1)CN(Cc1ccccc1)C2 [Compound 59, 2-benzyl-2-azaspiro [3.3]heptan-6-yl (2R,6S)-4-[5-(2-hydroxy-2-methylpropoxy)pyrimidin-2-yl]-2,6-dimethyl-piperazine-1-carboxylate]"

# The remaining lines, values behind:
row,Compound,Ki
1,"CCS(=O)(=O)c1cnc(N2C[C@@H](C)N(C(=O)NC3CC4(C3)CN(Cc3ccccc3)C4)[C@@H](C)C2)nc1 [Compound 2, (2R,6S)-N-{2-benzyl-2-azaspiro[3.3]heptan-6-yl}-4-[5-(ethanesulfonyl)pyrimidin-2-yl]-2,6-dimethylpiperazine-1-carboxamide]",< 0.1 µM
2,"C[C@@H]1CN(c2ncc([S+](C)[O-])cn2)C[C@H](C)N1C(=O)OC1CC2(C1)CN(Cc1ccccc1)C2 (stereo partly drawn) [Compound 23, 2-benzyl-2-azaspiro [3.3]heptan-6-yl (2R,6S)-4-(5-methane-sulfinylpyrimidin-2-yl)-2,6-dimethylpiperazine-1-carboxylate]",0.1 to 0.5 µM
3,"CCS(=O)(=O)c1cnc(N2C[C@@H](C)N(C(=O)OC3CC4(C3)CN(Cc3ccccc3)C4)C[C@@H]2C)nc1 [Compound 11, 2-benzyl-2-azaspiro [3.3]heptan-6-yl (2R,5S)-4-[5-(ethane-sulfonyl)pyrimidin-2-yl]-2,5-dimethylpiperazine-1-carboxylate]",< 0.1 µM
4,"CCS(=O)(=O)c1cnc(N2C[C@@H](C)N(C(=O)OC3CC4(C3)CN(Cc3ccccc3)C4)[C@H](C)C2)nc1 [Compound 18, 2-benzyl-2-azaspiro [3.3]heptan-6-yl (2R,6R)-4-[5-(ethane-sulfonyl)pyrimidin-2-yl]-2,6-dimethylpiperazine-1-carboxylate]",0.1 to 0.5 µM
5,"C[C@@H]1CN(c2ncc(S(C)(=O)=O)cn2)C[C@H](C)N1C(=O)OC1CC2(C1)CN(Cc1ccccc1)C2 [Compound 33, 2-benzyl-2-azaspiro [3.3]heptan-6-yl (2R,6S)-4-(5-methane-sulfonylpyrimidin-2-yl)-2,6-dimethylpiperazine-1-carboxylate]",< 0.1 µM
6,"C[C@@H]1CN(c2ncc(S(=O)(=O)C3CC3)cn2)[C@@H](C)CN1C(=O)NC1CC2(C1)CN(Cc1ccccc1)C2 [Compound 6, (2R,5S)-N-{2-benzyl-2-azaspiro[3.3]heptan-6-yl}-4-[5-(cyclopropane-sulfonyl)pyrimidin-2-yl]-2,5-dimethylpiperazine-1-carboxamide]",< 0.1 µM
7,"CCS(=O)(=O)c1cnc(N2C[C@@H](C)N(C(=O)NC3CC4(C3)CN(Cc3ccccc3)C4)C[C@@H]2C)nc1 [Compound 5, (2R,5S)-N-{2-benzyl-2-azaspiro[3.3]heptan-6-yl}-4-[5-(ethanesulfonyl)pyrimidin-2-yl]-2,5-dimethylpiperazine-1-carboxamide]",< 0.1 µM
8,"CC[C@@H](O)COc1cnc(N2C[C@@H](C)N(C(=O)OC3CC4(C3)CN(Cc3ccccc3)C4)[C@@H](C)C2)nc1 [Compound 58, 2-benzyl-2-azaspiro [3.3]heptan-6-yl (2R,6S)-4-{5-[(2R)-2-hydroxybutoxy]pyrimidin-2-yl}-2,6-dimethyl-piperazine-1-carboxylate]",0.1 to 0.5 µM
9,"C[C@@H]1CN(c2ncc3c(n2)CCS3(=O)=O)C[C@H](C)N1C(=O)OC1CC2(C1)CN(Cc1ccccc1)C2 [Compound 39, 2-benzyl-2-azaspiro [3.3]heptan-6-yl (2R,6S)-4-{5,5-dioxo-6H, 7H-5λ^6-thieno[3,2-d]pyrimidin-2-yl}-2,6-dimethylpiperazine-1-carboxylate]",0.1 to 0.5 µM
10,"CC(C)S(=O)(=O)c1cnc(N2C[C@@H](C)N(C(=O)OC3CC4(C3)CN(Cc3ccccc3)C4)C[C@@H]2C)nc1 [Compound 26, 2-benzyl-2-azaspiro [3.3]heptan-6-yl (2R,5S)-2,5-dimethyl-4-[5-(propane-2-sulfonyl)pyrimidin-2-yl]piperazine-1-carboxylate]",< 0.1 µM
11,"C[C@@H]1CN(c2ncc(S(C)(=O)=O)cn2)[C@@H](C)CN1C(=O)OC1CC2(C1)CN(Cc1ccccc1)C2 [Compound 12, 2-benzyl-2-azaspiro [3.3]heptan-6-yl (2R,5S)-4-(5-methane-sulfonylpyrimidin-2-yl)-2,5-dimethylpiperazine-1-carboxylate]",< 0.1 µM
12,"C[C@@H]1CN(c2ccc(S(C)(=O)=O)cc2)C[C@H](C)N1C(=O)NC1CC2(C1)CN(Cc1ccccc1)C2 [Compound 9, (2R,6S)-N-{2-benzyl-2-azaspiro[3.3]heptan-6-yl}-4-(4-methanesulfonyl-phenyl)-2,6-dimethyl-piperazine-1-carboxamide]",≥ 0.5 µM
13,"CCS(=O)(=O)c1cnc(N2C[C@@H](C)N(C(=O)OC3CC4(C3)CN(Cc3ccccc3)C4)[C@@H](C)C2)nc1 [Compound 32, 2-benzyl-2-azaspiro [3.3]heptan-6-yl (2R,6S)-4-[5-(ethane-sulfonyl)pyrimidin-2-yl]-2,6-dimethylpiperazine-1-carboxylate]",< 0.1 µM
14,"C[C@@H]1CN(c2ncc(N3CCCC3=O)cn2)C[C@H](C)N1C(=O)OC1CC2(C1)CN(Cc1ccccc1)C2 [Compound 30, 2-benzyl-2-azaspiro [3.3]heptan-6-yl (2R,6S)-2,6-dimethyl-4-[5-(2-oxopyrrolidin-1-yl)pyrimidin-2-yl]piperazine-1-carboxylate]",≥ 0.5 µM
